Results: ChEMBL document CHEMBL1201862, “PubChem BioAssay data set” (2004)
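Values below derive from 48-hour exposures of cells grown in 96-well plates, with endpoints linearly interpolated between the two concentrations bracketing the appropriate inhibition level. GI50 marks 50% less growth.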 Calls of active or inactive are those of the source. Cut-off read from the data, not from the text of the source: active = GI50 up to about 1.1 µM and inactive = higher. Where a SMILES comes first, the peptide text is derived from it. [ ]: non-standard residue; d: D form. The star is where a group is joined. NMeAc5c = CNC1(C(=O)O)CCCC1; Boc = CC(C)(C)OC(=O)*; OBn = c1ccc(CO*)cc1

Experiments:
Test in all cases: growth of human tumour cells (NCI), 48 h
[1] = tested on: NCI-H226
[2] = tested on: MDA-N
[3] = tested on: HOP-62
[4] = tested on: RXF 393
[5] = tested on: CAKI-1
[6] = tested on: NCI/ADR-RES
[7] = tested on: ACHN
[8] = tested on: COLO 205
[9] = tested on: IGROV-1
[10] = tested on: Hs-578T
[11] = tested on: SF-539
[12] = tested on: UACC-257
[13] = tested on: HT-29
[14] = tested on: Malme-3M
[15] = tested on: HCT-15
[16] = tested on: A549
[17] = tested on: KM12
[18] = tested on: EKVX
[19] = tested on: HCC 2998

Structure (SMILES) | GI50 [1] | GI50 [2] | GI50 [3] | GI50 [4] | GI50 [5] | GI50 [6] | GI50 [7] | GI50 [8] | GI50 [9] | GI50 [10] | GI50 [11] | GI50 [12] | GI50 [13] | GI50 [14] | GI50 [15] | GI50 [16] | GI50 [17] | GI50 [18] | GI50 [19]
CC(C)N(Cc1ccccc1)S(=O)(=O)c1nc(C(C)(C)C)n[nH]1 | > 100 µM (inactive) | > 100 µM (inactive) | > 100 µM (inactive) | > 100 µM (inactive) | > 100 µM (inactive) | > 100 µM (inactive) | > 100 µM (inactive) | > 100 µM (inactive) | > 100 µM (inactive) | > 100 µM (inactive) | > 100 µM (inactive) | 44.9 µM (inactive) | > 100 µM (inactive) | > 100 µM (inactive) | > 100 µM | > 100 µM (inactive) | > 100 µM (inactive) | > 100 µM (inactive) | –
Cc1ccc(S(=O)ON2CCC(C(=O)O)(c3ccccc3)CC2)cc1 (centres undefined) | > 100 µM (inactive) | > 100 µM (inactive) | > 100 µM (inactive) | > 100 µM (inactive) | > 100 µM (inactive) | > 100 µM (inactive) | > 100 µM (inactive) | > 100 µM (inactive) | > 100 µM (inactive) | > 100 µM (inactive) | – | > 100 µM (inactive) | > 100 µM (inactive) | > 100 µM (inactive) | > 100 µM | > 100 µM (inactive) | > 100 µM (inactive) | 33.3 µM (inactive) | > 100 µM (inactive)
Cc1c2ccccc2c(CSC(=N)N)c2ccccc12 | 0.247 µM (active) | 0.175 µM (active) | 0.241 µM (active) | 0.0715 µM (active) | – | 0.234 µM (active) | 0.0728 µM (active) | 0.14 µM (active) | 0.312 µM (active) | 0.172 µM (active) | 0.118 µM (active) | 0.187 µM (active) | 0.163 µM (active) | 0.149 µM (active) | 0.269 µM | 0.216 µM (active) | 0.218 µM (active) | 0.304 µM (active) | –
NCCC(=O)NC(Cc1c[nH]cn1)C(=O)O (centres undefined) | > 100 µM (inactive) | > 100 µM (inactive) | > 100 µM (inactive) | – | > 100 µM (inactive) | > 100 µM (inactive) | > 100 µM (inactive) | > 100 µM (inactive) | > 100 µM (inactive) | > 100 µM (inactive) | > 100 µM (inactive) | > 100 µM (inactive) | > 100 µM (inactive) | > 100 µM (inactive) | > 100 µM | > 100 µM (inactive) | > 100 µM (inactive) | > 100 µM (inactive) | > 100 µM (inactive)
CC(=O)c1ccc2c3c1[C@@H]1O[C@@H]1c1cccc(c1-3)[C@@H]1O[C@H]21 | 37.8 µM (inactive) | 13.5 µM (inactive) | 13.7 µM (inactive) | 11.5 µM (inactive) | 4.72 µM (inactive) | 13.7 µM (inactive) | 21.6 µM (inactive) | 9.79 µM (inactive) | 0.782 µM (active) | 14.9 µM (inactive) | – | 16.9 µM (inactive) | 5.55 µM (inactive) | 7.4 µM (inactive) | 3.44 µM | 14.5 µM (inactive) | 7.52 µM (inactive) | 16.4 µM (inactive) | –
C=CC1(c2ccc(Br)cc2)OCCCO1 | > 100 µM (inactive) | > 100 µM (inactive) | > 100 µM (inactive) | > 100 µM (inactive) | – | > 100 µM (inactive) | > 100 µM (inactive) | > 100 µM (inactive) | > 100 µM (inactive) | > 100 µM (inactive) | > 100 µM (inactive) | > 100 µM (inactive) | > 100 µM (inactive) | > 100 µM (inactive) | > 100 µM | > 100 µM (inactive) | > 100 µM (inactive) | > 100 µM (inactive) | > 100 µM (inactive)
CC(=O)/C=C1\Nc2ccccc2N\C1=C/C(C)=O | 21.4 µM (inactive) | 29.9 µM (inactive) | 27.3 µM (inactive) | 19.1 µM (inactive) | 60.8 µM (inactive) | 29 µM (inactive) | 22.6 µM (inactive) | 23.2 µM (inactive) | 18.8 µM (inactive) | 29.9 µM (inactive) | 30.3 µM (inactive) | 20.3 µM (inactive) | 20.1 µM (inactive) | 23 µM (inactive) | 24.3 µM | 21.5 µM (inactive) | 24 µM (inactive) | 27.5 µM (inactive) | –
CCCCNC(=O)Cn1c2ccc(Br)cc2c2nc3ccccc3nc21 | 12.3 µM (inactive) | > 100 µM (inactive) | 58.1 µM (inactive) | > 100 µM (inactive) | 57.3 µM (inactive) | 42.2 µM (inactive) | > 100 µM (inactive) | > 100 µM (inactive) | > 100 µM (inactive) | > 100 µM (inactive) | – | > 100 µM (inactive) | > 100 µM (inactive) | – | – | > 100 µM (inactive) | > 100 µM (inactive) | – | –
COc1ccc(C(=O)NCCC2CN(S(=O)(=O)C(F)(F)F)c3ccccc32)c(OC)c1 (centres undefined) | – | 33.2 µM (inactive) | 88.5 µM (inactive) | > 100 µM (inactive) | > 100 µM (inactive) | 23.1 µM (inactive) | 33.2 µM (inactive) | 34.5 µM (inactive) | 61.4 µM (inactive) | 33.1 µM (inactive) | – | 40.8 µM (inactive) | 22.7 µM (inactive) | 7.06 µM (inactive) | 57.4 µM | 52.1 µM (inactive) | 21.3 µM (inactive) | 39 µM (inactive) | 60.4 µM (inactive)
CNC(=O)C1CCC(=O)N1CN(C(C)=O)c1ccccc1 (centres undefined) | > 100 µM (inactive) | > 100 µM (inactive) | > 100 µM (inactive) | > 100 µM (inactive) | > 100 µM (inactive) | > 100 µM (inactive) | > 100 µM (inactive) | > 100 µM (inactive) | > 100 µM (inactive) | > 100 µM (inactive) | > 100 µM (inactive) | > 100 µM (inactive) | > 100 µM (inactive) | > 100 µM (inactive) | > 100 µM | > 100 µM (inactive) | > 100 µM (inactive) | > 100 µM (inactive) | –
Cc1ccsc1/C=N/NC1=NCCN1 | > 100 µM (inactive) | > 100 µM (inactive) | > 100 µM (inactive) | > 100 µM (inactive) | > 100 µM (inactive) | > 100 µM (inactive) | > 100 µM (inactive) | > 100 µM (inactive) | > 100 µM (inactive) | > 100 µM (inactive) | – | > 100 µM (inactive) | > 100 µM (inactive) | > 100 µM (inactive) | > 100 µM | > 100 µM (inactive) | > 100 µM (inactive) | > 100 µM (inactive) | > 100 µM (inactive)
O=C(CC(C(=O)c1cccs1)c1ccccc1)c1ccccc1O (centres undefined) | > 57.7 µM (inactive) | 4.93 µM (inactive) | 18.2 µM (inactive) | 5.19 µM (inactive) | 8.95 µM (inactive) | 6.01 µM (inactive) | 11.3 µM (inactive) | > 50.7 µM (inactive) | 4.98 µM (inactive) | 5.81 µM (inactive) | 34.1 µM (inactive) | > 30.7 µM (inactive) | 11.9 µM (inactive) | – | 8 µM | 13.1 µM (inactive) | 20.9 µM (inactive) | 12.7 µM (inactive) | –
CC(=O)Oc1ccc(-c2nnc(-c3ccc(OC(C)=O)cc3)nn2)cc1 | > 100 µM (inactive) | > 100 µM (inactive) | > 100 µM (inactive) | > 100 µM (inactive) | > 100 µM (inactive) | 38.8 µM (inactive) | 59 µM (inactive) | > 100 µM (inactive) | > 100 µM (inactive) | > 100 µM (inactive) | > 100 µM (inactive) | > 100 µM (inactive) | > 100 µM (inactive) | > 100 µM (inactive) | 51.4 µM | > 100 µM (inactive) | > 100 µM (inactive) | 70.5 µM (inactive) | –
O=C1CC(c2ccccc2Cl)C2(C(=O)NC(=O)NC2=O)C(c2ccccc2Cl)C1 (centres undefined) | 65.8 µM (inactive) | 78 µM (inactive) | > 100 µM (inactive) | 29.5 µM (inactive) | – | > 100 µM (inactive) | > 100 µM (inactive) | – | 0.104 µM (active) | 41.4 µM (inactive) | 76.2 µM (inactive) | > 100 µM (inactive) | > 100 µM (inactive) | 5.05 µM (inactive) | > 100 µM | 85.3 µM (inactive) | > 100 µM (inactive) | 38.6 µM (inactive) | 49.2 µM (inactive)
COc1ccc(Nc2cc(O)nc(O)n2)cc1 | > 100 µM (inactive) | > 100 µM (inactive) | > 100 µM (inactive) | 24.7 µM (inactive) | – | > 100 µM (inactive) | > 100 µM (inactive) | > 100 µM (inactive) | > 100 µM (inactive) | > 100 µM (inactive) | > 100 µM (inactive) | > 100 µM (inactive) | > 100 µM (inactive) | > 100 µM (inactive) | > 100 µM | > 100 µM (inactive) | > 100 µM (inactive) | > 100 µM (inactive) | > 100 µM (inactive)
CN(C(=O)C(Cc1ccccc1)NC(=O)OC(C)(C)C)C1(C(=O)NC(Cc2ccccc2)C(=O)OCc2ccccc2)CCCC1 (stereo not drawn) (Boc-Phe-[NMeAc5c]-Phe-OBn; configuration not given here) | 40.6 µM (inactive) | 23.2 µM (inactive) | 38.5 µM (inactive) | 44.7 µM (inactive) | – | 27.7 µM (inactive) | 24.9 µM (inactive) | 22.3 µM (inactive) | 53.6 µM (inactive) | 41.3 µM (inactive) | 74.3 µM (inactive) | 57.3 µM (inactive) | 22.3 µM (inactive) | > 100 µM (inactive) | 28.7 µM | 33.3 µM (inactive) | 36.6 µM (inactive) | 59.6 µM (inactive) | 77.4 µM (inactive)
